Patent US20250109127A1, “METHODS OF USE OF PHENOXYPROPYLAMINE COMPOUNDS TO TREAT DEPRESSION” (Minerva Neurosciences, Inc., priority 2013, published 2025)
Values joined by “and” are separate entries in the source; they are usually repeats but may differ in a detail not shown here. Equal entries are not always repeated. Structures can show the parent of a compound that is named as a salt.

Test system: norepinephrin release in the rat prefrontal cortex
Assay: Microdialysis: norepinephrine release in prefrontal cortex after I.P. administration
Format: in vivo
Details: for Norepinephrin release, MEAN / Norepinephrin release, individual animals: 3 mg/kg IP; for Norepinephrin release, MEAN: n = 8; for Norepinephrin release, individual animals: per animal R#15,16,21,22,27,28,09,10; for Norepinephrin release, individual animals / NOREPINEPHRIN in dialysate, individual animals: hydrochloride; for NOREPINEPHRIN in dialysate, individual animals: 0.1 mg/kg
Method: The aim of the study was to evaluate, using microdialysis, the effects of an intraperitoneal (I.P.) administration in rats of three different doses of SON-117 on dopamine and its metabolites, serotonin and its metabolite (5-HIAA), and norepinephrine levels in prefrontal cortex.
Thirty-two adult male Wistar rats were used for the whole study (4 groups of eight animals planned for the study, Table 1).
Surgery was performed on rats weighing about 300 g at the beginning of the experiments. Rats were anaesthetized with Ketamine (50 mg/kg) & Xylazine (15 mg/kg) by intramuscular administration. The animals were placed in a stereotaxic apparatus in the flat-skull position at a constant setting of −3.3 mm between ear bars and the incisor bar. The animals were treated with a local anesthesic (xylocaine 1%, Astra Zeneca) and an analgesic (Temgesic, from Schering Plough, 0.05 mg/kg, s.c.). A rostrocaudal midline incision was made with a lancet to expose the dorsal skull surface. The “stereotaxic zero” was defined by the Bregma in accordance with Paxinos and Watson's atlas (1986). A hole was drilled in the skull with a drill and the meninges were pierced with a sterile needle to implant a CMA12 guide cannula which later received the dialysis probe.
Coordinates used for implanting guide cannula in prefrontal cortex from Bregma were anteroposterior 3.7 mm, mediolateral 0.8 mm, and dorsoventral −2 mm (top of the probe was at −5 mm). The guide cannula was fixed to the skull with two stainless steel screws (1.88 mm outside diameter) anchored. An application of dental cement was added. A plastic collar allowed each animal to be tethered to a Swivel assembly of the CMA 120 awake animal system. Following surgery, rats were kept in individual cages and allowed to recover for a minimum of 3-5 days before the experimentation. The rats were handled and put in plastic bowl for 10 min at least every day to habituate the animals to their new environment for the dialysis. An I.P. administration with saline was also performed every day.
Dialysis probes (CMA12/3 mm, membrane, 20 kD cut-off, Carnegie Medicine, Stockholm, Sweden), were carefully washed before inserting into the guide cannula. The wash was performed with the artificial cerebrospinal fluid (aCSF) medium (NaCl 147 mM, KCl 2.7 mM, CaCl2 1.2 mM, MgCl2 0.85 mM) at room temperature. The dialysis system was then equilibrated at 20° C. at a perfusion rate of 1 μl/min with a Carnegie pump (CMA100). All catheters (FEP tubing, internal volume of 1.2 μl/10 cm, and tubing adaptors) used for microdialysis were treated in the same conditions.
The probes duly prepared were inserted into the guide cannula and the CMA120 Swivel assembly secured to the animal using a plastic collar. Flow through the dialysis probe with aCSF was maintained at a rate of 1 μl/min during the whole experimentation. The first four fractions (corresponding to 2 hours) were discarded to avoid the effects of parenchymal disturbance and to ensure that an approximate steady-state level was reached. Fractions were then collected over a period of 8.5 h during which time the animals remained quiet. The dialysates were automatically collected with an autosampler (microfraction collector CMA 140, Carnegie Medicin) and stored at −80° C. until analysis. […] Perfusion was then maintained for 7 hours with aCSF. The dialysates (30 μl) were collected into 300 μl vials, transferred into dry ice and then kept frozen (−80° C.) until analysis. Frozen samples were shipped to a partner for analysis. At the end of the microdialysis study, a PBS with colored ink was perfused through the probe in order to visualize the dialyzed area.
Catecholamine assay: Concentrations of dopamine, DOPAC, HVA, 5-HIAA, 5-HT, and norepinephrin were determined for each sample by HPLC coupled with electrochemical detection. […]

[1] = SON-117 0.1 mg/kg I.P., T0-T30 min
[2] = SON-117 0.1 mg/kg I.P., T30-T1 h

SMILES: Cc1nnc(-c2cc3c(OC[C@@H](O)CN4CCC(c5ccc(Cl)c(Cl)c5)CC4)cccc3o2)o1 [SON-117, (S)-1-(4-(3,4-dichlorophenyl)piperidino)-3-(2-(5-methyl-1,3,4-oxadiazol-2-yl)benzo(b)furan-4-yloxy)-2-propanol hydrochloride]
- Norepinephrin release, MEAN (T3 h 30-T4 h): 96.91 % of respective basal
- Norepinephrin release, individual animals (T3 h 30-T4 h): 92.25 % of respective basal and 96.09 % of respective basal and 81.54 % of respective basal and 98.50 % of respective basal and 84.78 % of respective basal and 103.12 % of respective basal and 98.12 % of respective basal and 120.87 % of respective basal
- Norepinephrin release, MEAN (T3 h-T3 h 30): 98.58 % of respective basal
- Norepinephrin release, individual animals (T3 h-T3 h 30): 105.14 % of respective basal and 113.23 % of respective basal and 79.41 % of respective basal and 94.38 % of respective basal and 76.17 % of respective basal and 100.68 % of respective basal and 93.69 % of respective basal and 125.93 % of respective basal
- Norepinephrin release, MEAN (T4 h 30-T5 h): 97.28 % of respective basal
- Norepinephrin release, individual animals (T4 h 30-T5 h): 58.60 % of respective basal and 125.43 % of respective basal and 101.68 % of respective basal and 87.38 % of respective basal and 80.27 % of respective basal and 104.69 % of respective basal and 112.63 % of respective basal and 107.59 % of respective basal
- Norepinephrin release, MEAN (T4 h-T4 h 30): 95.48 % of respective basal
- Norepinephrin release, individual animals (T4 h-T4 h 30): 62.13 % of respective basal and 91.42 % of respective basal and 88.64 % of respective basal and 99.58 % of respective basal and 82.26 % of respective basal and 99.52 % of respective basal and 111.02 % of respective basal and 129.30 % of respective basal
- Norepinephrin release, MEAN (T5 h 30-T6 h): 96.42 % of respective basal
- Norepinephrin release, individual animals (T5 h 30-T6 h): 82.50 % of respective basal and 100.18 % of respective basal and 65.95 % of respective basal and 85.98 % of respective basal and 75.91 % of respective basal and 86.97 % of respective basal and 139.22 % of respective basal and 134.66 % of respective basal
- Norepinephrin release, MEAN (T5 h-T5 h 30): 90.72 % of respective basal
- Norepinephrin release, individual animals (T5 h-T5 h 30): 87.73 % of respective basal and 105.81 % of respective basal and 60.65 % of respective basal and 89.96 % of respective basal and 73.79 % of respective basal and 96.43 % of respective basal and 137.91 % of respective basal and 93.51 % of respective basal
- Norepinephrin release, MEAN (T6 h 30-T7 h): 97.32 % of respective basal
- Norepinephrin release, individual animals (T6 h 30-T7 h): 66.13 % of respective basal and 133.14 % of respective basal and 93.99 % of respective basal and 95.87 % of respective basal and 77.85 % of respective basal
- Norepinephrin release, MEAN (T6 h-T6 h 30): 98.56 % of respective basal
- Norepinephrin release, individual animals (T6 h-T6 h 30): 78.64 % of respective basal and 120.89 % of respective basal and 90.25 % of respective basal and 94.88 % of respective basal and 80.09 % of respective basal and 93.58 % of respective basal and 131.29 % of respective basal
- Norepinephrin release, MEAN (T-30 min-T0 (before administration)): 97.42 % of respective basal
- Norepinephrin release, MEAN (T-1 h 30-T-1 h (before administration)): 102.02 % of respective basal
- Norepinephrin release, MEAN (T-1 h-T-30 min (before administration)): 100.56 % of respective basal
- NE post injection levels vs mean pre-injection value (SON-117 0.1 mg/kg I.P.): no statistically significant differences
- NOREPINEPHRIN in dialysate, MEAN [1]: 82.85 % of respective basal
- NOREPINEPHRIN in dialysate, individual animals [1]: 92.79 % of respective basal and 99.624 % of respective basal and 74.34 % of respective basal and 64.40 % of respective basal and 84.29 % of respective basal and 81.69 % of respective basal
- NOREPINEPHRIN in dialysate, MEAN [2]: 95.58 % of respective basal
- NOREPINEPHRIN in dialysate, individual animals [2]: 105.21 % of respective basal and 96.78 % of respective basal and 87.94 % of respective basal and 101.10 % of respective basal and 90.37 % of respective basal and 88.40 % of respective basal and 114.24 % of respective basal and 80.61 % of respective basal
- NOREPINEPHRIN in dialysate, MEAN (SON-117 0.1 mg/kg I.P., T1 h 30-T2 h): 81.28 % of respective basal
